pEC50: −log10 of the molar value. Values joined by “and” are separate entries in the source; they are usually repeats but may differ in a detail not shown here. Equal entries are not always repeated. Where two headings read alike, the source gives them in different places. Blank lines part the entries; values can stand above or below the molecule they belong to.
Key:
[1] = Mouse liver microsome metabolic stability test; format: in vitro ADME; details: mouse liver microsome assay
[2] = Water solubility by microplate nephelometer; format: physicochemical
Method: The water solubility was determined using a microplate nephelometer (NEPHELOstar, BMG labtech, Cary, N.C.).

[3] = Plasma pharmacokinetics after single IV and PO dose; format: in vivo, male C57BL6/j mice; details: for Plasma Concentration, individual mice / concentration at 0.5 hr / concentration at 1 hr / concentration at 2 hr / concentration at 4 hr / concentration at 8 hr / concentration at 12 hr / Vd: 20 mg/kg; for MRT inf: read-out: MRT(0-∞)
Method: Three mice in each group were used for blood collection at each time point. Blood samples (approximately 400 μL) were collected after euthanasia using carbon dioxide inhalation via cardiac puncture pre-dose and 30 minutes, 1 hour, 2 hours, 4 hours, 8 hours and 12 hours post-dose. Blood samples were placed into tubes containing sodium heparin and centrifuged at 8000 rpm for 6 minutes at 4° C. to separate plasma from the blood samples. Following centrifugation, the resulting plasma was transferred to clean tubes and stored frozen at −80° C. until bioanalysis by the Testing Facility.

in vivo = details: male, C57BL6/j, mouse, 20 mg/kg
[4] = male, C57BL6/j, mouse, in vivo, po, 20 mg/kg
BJeLR cells = assay: RSL testing: growth inhibition (alamar blue) in BJeLR cells; format: cell-based; details: Homo sapiens, BJeLR
Method: Cell viability was determined using alamar blue and percent growth inhibition computed as described previously (Id.).

[5] = male, C57BL6/j, mouse, plasma, IV 20 mg/kg
[6] = male, C57BL6/j, mouse, plasma, PO 20 mg/kg
[7] = iv, Brain Concentration, individual mice
[8] = iv, Brain-Plasma Concentration Ratio, Mean
[9] = iv, Brain-Plasma Concentration Ratio, individual mice
[10] = po, Brain Concentration, individual mice
[11] = po, Brain-Plasma Concentration Ratio, Mean
[12] = po, Brain-Plasma Concentration Ratio, individual mice

- solubility ([2]; water, nephelometry): improved solubility
- Plasma Concentration, individual mice ([3]; IV 20 mg/kg, 2 hr): 1016.04 ng/mL and 1054.66 ng/mL
- Plasma Concentration, individual mice ([3]; IV 20 mg/kg, 8 hr): 105.57 ng/mL and 148.67 ng/mL
- Plasma Concentration, individual mice ([3]; PO 20 mg/kg, 1 hr): 1635.86 ng/mL and 1288.53 ng/mL
- Plasma Concentration, individual mice ([3]; PO 20 mg/kg, 4 hr): 642.39 ng/mL and 669.76 ng/mL
- Plasma Concentration, individual mice ([3]; PO 20 mg/kg, 8 hr): 23.99 ng/mL and 28.91 ng/mL
- Plasma Concentration, individual mice ([3]; PO 20 mg/kg, 12 hr): 21.10 ng/mL and 15.06 ng/mL
- concentration at 0.5 hr ([3]; male, C57BL6/j, mouse, plasma, iv, IV 20 mg/kg, 0.5 hr): 3220 ng/mL
- concentration at 1 hr ([3]; male, C57BL6/j, mouse, plasma, iv, IV 20 mg/kg, 1 hr, read-out: Plasma Concentration, Mean): 1240 ng/mL
- concentration at 2 hr ([3]; male, C57BL6/j, mouse, plasma, iv, IV 20 mg/kg, 2 hr, read-out: Plasma Concentration, Mean): 997 ng/mL
- concentration at 2 hr ([3]; male, C57BL6/j, mouse, plasma, iv, IV 20 mg/kg, 2 hr, read-out: Plasma Concentration, individual mice): 920 ng/mL
- concentration at 4 hr ([3]; male, C57BL6/j, mouse, plasma, iv, IV 20 mg/kg, 4 hr, read-out: Plasma Concentration, Mean): 412 ng/mL
- concentration at 8 hr ([3]; male, C57BL6/j, mouse, plasma, iv, IV 20 mg/kg, 8 hr, read-out: Plasma Concentration, Mean): 134 ng/mL
- concentration at 8 hr ([3]; male, C57BL6/j, mouse, plasma, iv, IV 20 mg/kg, 8 hr, read-out: Plasma Concentration, individual mice): 147 ng/mL
- concentration at 12 hr ([3]; male, C57BL6/j, mouse, plasma, iv, IV 20 mg/kg, 12 hr, read-out: Plasma Concentration, Mean): 96.8 ng/mL
- Vd ([3]; male, C57BL6/j, mouse, plasma, iv, plasma, IV 20 mg/kg, read-out: Vz): 9.63 L/kg
- Vd ([3]; male, C57BL6/j, mouse, plasma, iv, plasma, IV 20 mg/kg, read-out: volume of distribution at terminal phase): 9.63 L/kg
- concentration at 0.5 hr ([3]; male, C57BL6/j, mouse, plasma, po, PO 20 mg/kg, 0.5 hr): 286 ng/mL
- concentration at 1 hr ([3]; male, C57BL6/j, mouse, plasma, po, PO 20 mg/kg, 1 hr, read-out: Plasma Concentration, Mean): 1390 ng/mL
- concentration at 1 hr ([3]; male, C57BL6/j, mouse, plasma, po, PO 20 mg/kg, 1 hr, read-out: Plasma Concentration, individual mice): 1240 ng/mL
- concentration at 2 hr ([3]; male, C57BL6/j, mouse, plasma, po, PO 20 mg/kg, 2 hr, read-out: Plasma Concentration, Mean): 935 ng/mL
- concentration at 4 hr ([3]; male, C57BL6/j, mouse, plasma, po, PO 20 mg/kg, 4 hr, read-out: Plasma Concentration, Mean): 696 ng/mL
- concentration at 4 hr ([3]; male, C57BL6/j, mouse, plasma, po, PO 20 mg/kg, 4 hr, read-out: Plasma Concentration, individual mice): 777 ng/mL
- concentration at 8 hr ([3]; male, C57BL6/j, mouse, plasma, po, PO 20 mg/kg, 8 hr, read-out: Plasma Concentration, Mean): 24 ng/mL
- concentration at 8 hr ([3]; male, C57BL6/j, mouse, plasma, po, PO 20 mg/kg, 8 hr, read-out: Plasma Concentration, individual mice): 19.1 ng/mL
- concentration at 12 hr ([3]; male, C57BL6/j, mouse, plasma, po, PO 20 mg/kg, 12 hr, read-out: Plasma Concentration, Mean): 18.8 ng/mL
- concentration at 12 hr ([3]; male, C57BL6/j, mouse, plasma, po, PO 20 mg/kg, 12 hr, read-out: Plasma Concentration, individual mice): 20.2 ng/mL
- bioavailability ([3]; male, C57BL6/j, mouse, plasma, PO 20 mg/kg vs IV 20 mg/kg, read-out: F (bioavailability)): 57.1%
- AUC(0-inf) [3, 5]: 8490 ng·h/mL
- AUC(0-t) [3, 5]: 8100 ng·h/mL
- Cmax [3, 5]: 3220 ng/mL
- Tmax [3, 5]: 0.5 h
- half-life [3, 5]: 2.84 h
- MRT inf [3, 5]: 2.67 h
- clearance ([3]; male, C57BL6/j, mouse, plasma, IV 20 mg/kg, read-out: systemic clearance (converted)): 39.2 mL/min/kg
- AUC(0-inf) [3, 6]: 4850 ng·h/mL
- AUC(0-t) [3, 6]: 4810 ng·h/mL
- Cmax [3, 6]: 1390 ng/mL
- Tmax [3, 6]: 1 h
- half-life [3, 6]: 1.57 h
- MRT inf [3, 6]: 2.91 h
- CLz ([3]; plasma, IV 20 mg/kg): 39.2413 mL/min/kg
- MRT inf (in vivo; iv): 9.91 h
- Tmax (in vivo; iv): 0.5 h
- half-life (in vivo; iv): 6.41 h
- concentration at 0.5 h (in vivo; iv, Brain Concentration, Mean): 96.1 ng/g
- concentration at 1 h (in vivo; iv, Brain Concentration, Mean): 85.5 ng/g
- concentration at 2 h (in vivo; iv, Brain Concentration, Mean): 73.7 ng/g
- concentration at 4 h (in vivo; iv, Brain Concentration, Mean): 48 ng/g
- concentration at 8 h (in vivo; iv, Brain Concentration, Mean): 30 ng/g
- concentration at 12 h (in vivo; iv, Brain Concentration, Mean): 29.8 ng/g
- concentration at 0.5 h (in vivo; [7]): 116 ng/g
- concentration at 1 h (in vivo; [7]): 76.6 ng/g
- concentration at 2 h (in vivo; [7]): 79.1 ng/g
- concentration at 4 h (in vivo; [7]): 34.1 ng/g
- Kp at 0.5 hr (in vivo; [8]): 0.03
- Kp at 1 h (in vivo; [8]): 0.08
- Kp at 2 h (in vivo; [8]): 0.07
- Kp at 4 h (in vivo; [8]): 0.13
- Kp at 8 h (in vivo; [8]): 0.23
- Kp at 12 h (in vivo; [8]): 0.44
- Kp at 0.5 hr (in vivo; [9]): 0.03
- Kp at 2 h (in vivo; [9]): 0.09
- Kp at 4 h (in vivo; [9]): 0.17
- Tmax (in vivo; po): 4 h
- concentration at 1 h (in vivo; po, Brain Concentration, Mean): 14.9 ng/g
- concentration at 2 h (in vivo; po, Brain Concentration, Mean): 12.3 ng/g
- concentration at 4 h (in vivo; po, Brain Concentration, Mean): 15.6 ng/g
- concentration at 1 h (in vivo; [10]): 10.9 ng/g
- concentration at 2 h (in vivo; [10]): 15.1 ng/g
- concentration at 4 h (in vivo; [10]): 14.2 ng/g
- Kp at 1 h (in vivo; [11]): 0.01
- Kp at 2 h (in vivo; [11]): 0.01
- Kp at 4 hr (in vivo; [11]): 0.02
- Kp at 1 h (in vivo; [12]): 0.01
- Kp at 2 h (in vivo; [12]): 0.01
- Kp at 4 hr (in vivo; [12]): 0.02
- Brain Concentration, individual mice ([4]; 1 h): 18.92 ng/g
- Brain-Plasma Concentration Ratio, individual mice ([4]; 1 h): 0.01 mL/g
- Brain Concentration, individual mice ([4]; 2 h): 9.49 ng/g
- Brain-Plasma Concentration Ratio, individual mice ([4]; 2 h): 0.01 mL/g
Structure (SMILES): CC(C)Oc1ccc(CN2CCNCC2)cc1-n1c(CN2CCN(C(=O)COc3ccc(Cl)cc3)CC2)nc2ccccc2c1=O [PE, 2-((4-(2-(4-chlorophenoxy)ethanoyl)piperazin-1-yl)methyl)-3-(2-isopropoxy-5-(piperazin-1-ylmethyl)phenyl)quinazolin-4(3H)-one]
- metabolic stability [1]: improved metabolic stability in comparison to erastin
- Plasma Concentration, individual mice ([3]; IV 20 mg/kg, 0.5 hr): 4625.87 ng/mL and 2218.81 ng/mL and 2826.92 ng/mL
- Plasma Concentration, individual mice ([3]; IV 20 mg/kg, 1 hr): 1548.38 ng/mL and 657.50 ng/mL and 1509.78 ng/mL
- Plasma Concentration, individual mice ([3]; IV 20 mg/kg, 4 hr): 200.14 ng/mL and 657.19 ng/mL and 379.24 ng/mL
- Plasma Concentration, individual mice ([3]; IV 20 mg/kg, 12 hr): 34.53 ng/mL and 159.78 ng/mL and 96.08 ng/mL
- Plasma Concentration, individual mice ([3]; PO 20 mg/kg, 0.5 hr): 365.89 ng/mL and 403.60 ng/mL and 87.63 ng/mL
- Plasma Concentration, individual mice ([3]; PO 20 mg/kg, 2 hr): 1260.55 ng/mL and 527.50 ng/mL and 1016.24 ng/mL

Structure (SMILES): CCOc1ccccc1-n1c(C(C)N2CCN(C(=O)COc3ccc(Cl)cc3)CC2)nc2ccccc2c1=O (centres unmarked) [erastin]
- metabolic stability [1]: metabolic instability
- pEC50 (BJeLR cells; read-out: EC50 (BJELR)): 5.74
- pEC50 (BJeLR cells; read-out: EC50 (BJeLR)): 5.75
- solubility [2]: poor solubility

Reference: US9695133B2, “Quinazolinone-based oncogenic-RAS-selective lethal compounds and their use” (THE TRUSTEES OF COLUMBIA UNIVERSITY IN THE CITY OF NEW YORK, priority 2012, dated 2017)
